US20080132539A1, “Hydroxamic Acid Derivative And Age Generation Inhibitor Containing The Derivative” (priority 2003, published 2008)

Tested on: Maillard reaction (lysozyme / fructose, dimer formation)
Experiment: Maillard reaction-inhibiting effects (lysozyme dimer formation with fructose, SDS-PAGE densitometry)
Assay type: biochemical
Details: 10 mg/mL lysozyme, 200 mM fructose, pH 7.4, 37° C., 4 days, dimer formation inhibition rate
Method: This Example examined Maillard reaction-inhibiting effects using, as test compounds, the compounds produced in the above-described Examples and the commercially available substances arginine hydroxamate (Compound No. 111), tyrosine hydroxamate (Compound No. 112), and tryptophan hydroxamate (Compound No. 113). More specifically, 10 mg/mL lysozyme, 200 mM fructose, and each of the above-described test compounds dissolved in a 0.4 mM sodium phosphate buffer (pH 7.4) so as to provide a concentrations of 0.1, 0.3, 1, or 3 mM were incubated at 37° C. for 4 days. After the incubation, the samples were subjected to SDS-PAGE, stained with Coomassie Brilliant Blue R-250, and quantitated for the formed dimmers using a densitometer. The Maillard reaction-inhibiting activity was defined as the dimmer formation inhibition rate of a test compound calculated on the basis that the amount of dimmer is 100% in the absence of the test compound, using, as blank, the amount of dimer in the absence of fructose and the test compound.

[1] = test compound concentration 0.1 mM
[2] = test compound concentration 0.3 mM
[3] = test compound concentration 1 mM
[4] = test compound concentration 3 mM

| SMILES | Maillard reaction-inhibiting activity (%) [1] | Maillard reaction-inhibiting activity (%) [2] | Maillard reaction-inhibiting activity (%) [3] | Maillard reaction-inhibiting activity (%) [4] |
| --- | --- | --- | --- | --- |
| CN(C)NC(=O)c1ccc(C[C@H](N)C(=O)NO)cc1 [Compound No. 37, (S)-2-amino-3-(4-dimethylaminocarbamoyl-phenyl)-N-hydroxypropionamide] | 1% | 16% | 35% | 94% |
| N[C@@H](CCc1nc2ccccc2n1C1CCOCC1)C(=O)NO [Compound No. 76, (S)-2-amino-N-hydroxy-4-[1-(tetrahydropyran-4-yl)-1H-benzimidazol-2-yl]butyramide] | 13% | 65% | 95% | 98% |
| CCCCCN(CCCCC)CCC[C@H](N)C(=O)NO [Compound No. 26, (S)-2-amino-5-dipentylaminopentanoic acid hydroxyamide] | 11% | 17% | 68% | 100% |
| N[C@@H](CCCNC(=O)Cc1ccc([N+](=O)[O-])cc1)C(=O)NO [Compound No. 16, (S)-2-amino-5-(4-nitrophenylacetylamino)pentanoic acid hydroxyamide] | −7% | 11% | 71% | 98% |
| CCCCC(=O)Nc1ccc(C[C@H](N)C(=O)NO)cc1 [Compound No. 31, (S)-2-amino-3-(4-valeroylaminophenyl)-N-hydroxypropionamide] | 29% | 72% | 100% | 100% |
| N#Cc1ccc(COc2ccc(C[C@H](N)C(=O)NO)cc2)cc1 [Compound No. 103, (S)-2-amino-3-[4-(4-cyanobenzyloxy)phenyl]-N-hydroxypropionamide] | 89% | 95% | 100% | 97% |
| N[C@@H](Cc1ccc(OCc2ccc(F)cc2F)cc1)C(=O)NO [Compound No. 102, (S)-2-amino-3-[4-(2,4-difluorobenzyloxy)phenyl]-N-hydroxypropionamide] | 78% | 88% | 94% | 95% |
| N[C@@H](Cc1ccc(NC(=O)Cc2ccc(F)cc2)cc1)C(=O)NO [Compound No. 33, (S)-2-amino-3-{4-[2-(4-fluorophenyl)acetylamino]-phenyl}-N-hydroxypropionamide] | 57% | 93% | 98% | 102% |
| N[C@@H](CCCNC(=O)c1ccc([N+](=O)[O-])cc1)C(=O)NO [Compound No. 15, (S)-2-amino-5-(4-nitrobenzoylamino)pentanoic acid hydroxyamide] | −12% | −2% | 43% | 98% |
| CCCCCn1cc(C[C@H](N)C(=O)NO)c2ccccc21 [Compound No. 109, (S)-2-amino-3-(1-pentyl-1H-indol-3-yl)-N-hydroxypropionamide] | 104% | 105% | 104% | 103% |
| CCCCCn1cc(C[C@@H](N)C(=O)NO)c2ccccc21 [Compound No. 110, (R)-2-amino-3-(1-pentyl-1H-indol-3-yl)-N-hydroxypropionamide] | 96% | 103% | 101% | 101% |
| N[C@@H](CCC(=O)NC1CCCCC1)C(=O)NO [Compound No. 5, (S)-2-amino-4-(cyclohexylaminocarbonyl)-N-hydroxybutyramide] | −3% | 5% | 35% | 97% |
| N[C@@H](CCc1nc2ccccc2n1C1CCCCC1)C(=O)NO [Compound No. 75, (S)-2-amino-N-hydroxy-4-(1-cyclohexyl-1H-benzimidazol-2-yl)butyramide] | 82% | 100% | 100% | 100% |
| CCCCCn1c(CC[C@H](N)C(=O)NO)nc2cc(Cl)c(Cl)cc21 [Compound No. 96, (S)-2-amino-4-(5,6-dichloro-1-pentyl-1H-benzimidazol-2-yl)-N-hydroxybutyramide] | 99% | 103% | 104% | 104% |
| CC(C)(C)c1ccc(Cn2cc(CC(N)C(=O)NO)c3ccccc32)cc1 (racemic) [Compound No. 106, (RS)-2-amino-3-[1-(4-t-butylbenzyl)-1H-indol-3-yl]-N-hydroxypropionamide] | 94% | 95% | 97% | 95% |
| CC(C)(C)c1ccc(Cn2c(CC[C@H](N)C(=O)NO)nc3ccccc32)cc1 [Compound No. 74, (S)-2-amino-N-hydroxy-4-[1-(4-t-butylbenzyl)-1H-benzimidazol-2-yl]butyramide] | 98% | 99% | 101% | 100% |
| CC(C)(C)Cn1c(CC[C@H](N)C(=O)NO)nc2ccccc21 [Compound No. 71, (S)-2-amino-N-hydroxy-4-[1-(2,2-dimethylpropyl)-1H-benzimidazol-2-yl]butyramide] | 71% | 97% | 98% | 99% |
| Cc1ccc(S(=O)(=O)Nc2ccc(C[C@H](N)C(=O)NO)cc2)cc1 [Compound No. 34, (S)-2-amino-3-[4-(toluen-4-ylsulfonylamino)phenyl]-N-hydroxypropionamide] | 37% | 98% | 102% | 102% |
| CC(C)(C)C(=O)Nc1ccc(C[C@H](N)C(=O)NO)cc1 [Compound No. 32, (S)-2-amino-3-(4-pivaloylaminophenyl)-N-hydroxypropionamide] | 23% | 50% | 89% | 102% |
| N[C@@H](CCC(=O)NCc1ccccn1)C(=O)NO [Compound No. 7, (S)-2-amino-4-(pyridin-2-ylmethylaminocarbonyl)-N-hydroxybutyramide] | −3% | −4% | 13% | 72% |
| CC(C)(C)c1ccc(NC(=O)CC[C@H](N)C(=O)NO)cc1 [Compound No. 2, (S)-2-amino-4-(4-t-butylphenylaminocarbonyl)-N-hydroxybutyramide] | 86% | 100% | 100% | 100% |
| N[C@@H](CCCNC(=O)CC1CCCCC1)C(=O)NO [Compound No. 19, (S)-2-amino-5-(cyclohexylacetylamino)pentanoic acid hydroxyamide] | 10% | 54% | 95% | 101% |
| N[C@@H](Cc1ccc(OCc2ccccc2-c2ccccc2)cc1)C(=O)NO [Compound No. 100, (S)-2-amino-3-[4-(2-phenylbenzyloxy)phenyl]-N-hydroxypropionamide] | 93% | 96% | 96% | 97% |
| Cc1cc2nc(CC[C@H](N)C(=O)NO)n(Cc3ccc(C(C)(C)C)cc3)c2cc1C [Compound No. 85, (S)-2-amino-4-[1-(4-t-butylbenzyl)-5,6-dimethyl-1H-benzimidazol-2-yl]-N-hydroxybutyramide] | 99% | 100% | 98% | 98% |
| N[C@@H](Cc1ccc(OCc2ccc([N+](=O)[O-])cc2)cc1)C(=O)NO [Compound No. 101, (S)-2-amino-3-[4-(4-nitrobenzyloxy)phenyl]-N-hydroxypropionamide] | 102% | 102% | 102% | 98% |
